What all share (experiment): Cancer cell growth inhibition, SRB assay
In one test the test system is MDA-231. The test is classed as cell-based, human. As to conditions: SRB at Day 6; for GI50: Homo sapiens, MDA-MB-231, 144 h, MDA-231 (Breast), triplicate.
The next test concerns Hs578T. The test is classed as cell-based. As to conditions: Homo sapiens, Hs-578T, 144 h; Hs578T (Breast); SRB at Day 6; triplicate.
Another test has as its system H358. The test is classed as cell-based, human. Details: Percentage of Growth Inhibition: unit not given here. As to conditions: SRB at Day 6; for GI50: Homo sapiens, NCI-H358, 144 h, H358 (Lung), triplicate. The method, boiled down: (§1)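 Absorbance at 570 nm of solubilized SRB dye, reflecting total protein and thus cell number, served as the readout after 6 days of exposure. Cells grew in DMEM containing 3% FBS during treatment, with DMSO held at 0.1%.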

The next test has as its system A172. The format is cell-based, human. Particulars: Homo sapiens, A 172, 144 h; A172 (Brain); SRB at Day 6; triplicate. In a few lines: as §1
A further test has as its system PC-3. The format is cell-based, human. Particulars: SRB at Day 6; for GI50: Homo sapiens, 144 h, PC-3 (Prostate), triplicate. In a few lines:
as §1

Another test deals with HCT-15. The format is cell-based, human. Particulars: Homo sapiens, 144 h; HCT-15 (Colon); SRB at Day 6; triplicate.
The test system of the next test is SW480. The test is classed as cell-based, human. Particulars: Homo sapiens, 144 h; SW480 (Colon); SRB at Day 6; triplicate.
Another test has as its system SW620. The test is classed as cell-based, human. Particulars: Homo sapiens, SW-620, 144 h; SW620 (Colon); SRB at Day 6; triplicate.
Another test relates to MCF-7. The test is classed as cell-based, human. Details: Percentage of Growth Inhibition: scale not given here. As to conditions: SRB at Day 6; for GI50: Homo sapiens, MCF7, 144 h, MCF-7 (Breast), triplicate. The method, boiled down: as §1
A further test has as its system SW626. The format is cell-based, human. Details: Percentage of Growth Inhibition: scale not given here. Particulars: Homo sapiens, 144 h; SW626 (Ovarian); SRB at Day 6; triplicate. In a few lines:
as §1

Another test has as its system H460. The test is classed as cell-based, human. As to conditions: SRB at Day 6; for GI50: Homo sapiens, NCI-H460, 144 h, H460 (Lung), triplicate. In a few lines:
as §1

A further test relates to HCT-8. The test is classed as cell-based, human. Particulars: at 10 μM, SRB at Day 6.
In a further test the test system is Caov-3. The test is classed as cell-based. As to conditions: Homo sapiens, 144 h; Caov-3 (Ovarian); SRB at Day 6; triplicate.
The next test deals with TOV-21G. The test is classed as cell-based. Particulars: Homo sapiens, TOV21G, 144 h; SRB at Day 6; triplicate.

Structures are written as SMILES.

As to `CCCCCc1ccc(S(=O)(=O)NC2(CC(=O)O)C[N+](C)(C)C2)cc1` [Example S29, 3-(carboxymethyl)-1,1-dimethyl-3-(4-pentylphenylsulfonamido)-azetidinium 2,2,2-trifluoroacetate], the GI50 in the test with MDA-231 was above 50 µM; with Hs578T, above 50 µM; in the test on H358, 86 µM; in the test on A172 it was above 50 µM; with PC-3, above 50 µM; with HCT-15 it was above 50 µM. Besides, the GI50 with SW480 was above 50 µM; in the test on SW620, above 77 µM; with MCF-7 it was 44 µM; with SW626, above 50 µM.
For `CCCCCc1ccc(S(=O)(=O)NC2(CC(=O)O)CN(C)C2)cc1` [Example S27, 3-(carboxymethyl)-1-methyl-3-(4-pentylphenylsulfonamido)azetidinium 2,2,2-trifluoroacetate], the “Percentage of Growth Inhibition” value in the test on MDA-231 (MDA-231, at 10 μM, NE = no activity at 10 micromolar) is on record as 0.1338%; with H358 (H358, at 10 μM, NE = no activity at 10 micromolar), 0.07312; in the test with H460 (H460, at 10 μM, NE = no activity at 10 micromolar) it was 0.00556%; with PC-3 (PC-3, at 10 μM, NE = no activity at 10 micromolar) it was 0.0865%; in the test on MCF-7 (MCF-7, at 10 μM, NE = no activity at 10 micromolar), 0.05347%; in the test on HCT-8 it was 0.09153%.
In the case of `CCCCCCCCc1ccc(NC(=O)NC2(CC(=O)O)CC[N+](C)(C)CC2)cc1` [Example S2, 4-(Carboxymethyl)-1,1-dimethyl-4-(3-(4-octylphenyl)ureido)piperidinium 2,2,2-trifluoroacetate], the GI50 with Hs578T stood at 50 µM; in the test on H358 it was 3.1 µM; in the test on A172, 1.8 µM; in the test on H460, 1.8 µM; with PC-3, 8.2 µM; in the test on HCT-15 it was 3 µM. In addition, the concentration for 50% growth inhibition (GI50) was 0.7 µM in the test with SW480, 2 µM in the test on SW620, 10 µM in the test with MCF-7 and 2.5 µM with SW626.
Take `CCCCCCCCc1ccc(NC(=O)NC2(CC(=O)O)CNC2)cc1` [Example S23, 3-(carboxymethyl)-3-(3-(4-octylphenyl)ureido)azetidinium 2,2,2-trifluoroacetate]: the GI50 in the test with Hs578T is 45 µM; in the test on H358, 14 µM; with A172, 7.2 µM; in the test on PC-3 it was 24 µM; with HCT-15, 28 µM; in the test on SW480, 28 µM. In addition, the concentration for 50% growth inhibition (GI50) with SW620 turned out to be 43 µM; with MCF-7, 26 µM; with SW626 it was 21 µM; in the test with Caov-3 it was 17 µM.
Take `CCCCCCCCc1ccc(NS(=O)(=O)NC2(CC(=O)O)CCC[N+](C)(C)C2)cc1` (stereo not drawn) [Example S16, 3-(carboxymethyl)-1,1-dimethyl-3-(N-(4-octylphenyl)sulfamoylamino)-piperidinium 2,2,2-trifluoroacetate]: the GI50 with MDA-231 came out at 0.5 µM; with Hs578T, 17 µM; in the test with H358, 1.4 µM; with A172, 1.1 µM; in the test on PC-3 it was 2.1 µM; with HCT-15, 36 µM. Moreover, the GI50 with SW480 was found to be 4 µM; in the test with SW620, 20 µM; in the test on MCF-7, 3.9 µM; in the test with SW626, 18 µM; in the test with Caov-3 it was 2.5 µM.
Regarding `CCCCCc1ccc(S(=O)(=O)NC2(CC(=O)O)CC[N+](C)(C)CC2)cc1` [Example S4, 4-(Carboxymethyl)-1,1-dimethyl-4-(4-pentylphenylsulfonamido)piperidinium 2,2,2-trifluoroacetate], the GI50 with A172 is above 50 µM; with PC-3, above 50 µM; in the test with HCT-15, above 50 µM; in the test with SW480, above 50 µM; in the test on SW620, above 50 µM; in the test with TOV-21G it was 44 µM.
In the case of `CCCCCCCCc1ccc(NC(=O)NC2(CC(=O)O)C[N+](C)(C)C2)cc1` [Example S24, 3-(Carboxymethyl)-1,1-dimethyl-3-(3-(4-octylphenyl)ureido)azetidinium 2,2,2-trifluoroacetate], the GI50 in the test with Hs578T amounted to 46 µM; in the test on H358, 19 µM; with A172, 41 µM; in the test on PC-3, 21 µM; with HCT-15, 38 µM; with SW480, 29 µM. Also, the GI50 in the test on SW620 is 44 µM; in the test on MCF-7 it was 27 µM; in the test with SW626 it was 63 µM; in the test with Caov-3, 45 µM.
On to `CCCCCCCCc1ccc(NC(=O)NC2(CC(=O)O)CC[N+](C)(C)C2)cc1` (stereo not drawn) [Example S18, 3-(carboxymethyl)-1,1-dimethyl-3-(3-(4-octylphenyl)ureido)-pyrrolidinium 2,2,2-trifluoroacetate], for which the GI50 in the test on Hs578T came to 26 µM; in the test with H358 it was 2.7 µM; in the test with A172, 1.9 µM; with H460, 2.2 µM; in the test on PC-3, 6.6 µM; in the test on HCT-15 it was 5.4 µM. Moreover, the GI50 in the test with SW480 was 1.2 µM; in the test with SW620, 3.1 µM; with MCF-7, 5.9 µM; in the test on SW626, 3.9 µM.
Regarding `CCCCCCCCc1ccc(NS(=O)(=O)NC2(CC(=O)O)CC[N+](C)(C)CC2)cc1` [Example S8, 4-(carboxymethyl)-1,1-dimethyl-4-(N-(4-octylphenyl)sulfamoylamino)piperidinium 2,2,2-trifluoroacetate], the GI50 with Hs578T is 26 µM; with H358 it was 0.9 µM; in the test with A172, 2.2 µM; with PC-3 it was 1.7 µM; in the test on HCT-15 it was 9 µM; in the test with SW480, 2.8 µM. Also, the GI50 turned out to be 8.4 µM in the test on SW620, 2 µM with MCF-7, 15 µM in the test with SW626 and 2 µM in the test on Caov-3.
Take `CCCCCCCCc1ccc(NS(=O)(=O)NC2(CC(=O)O)CCCN(C)C2)cc1` (stereo not drawn) [Example S15, 3-(carboxymethyl)-1-methyl-3-(N-(4-octylphenyl)sulfamoylamino)-piperidinium 2,2,2-trifluoroacetate]: the concentration for 50% growth inhibition (GI50) turned out to be 25 µM in the test with Hs578T; 12 µM in the test with H358; 2.7 µM with A172; 2.8 µM with PC-3; 32 µM in the test on HCT-15; 36 µM with SW480. Moreover, the GI50 is 27 µM in the test with SW620, 15 µM with MCF-7, 33 µM with SW626 and 4 µM in the test on Caov-3.

By GI50 is commonly meant the concentration that inhibits growth by half.

For the origin of these results see patent US8680282B2, “Cyclic inhibitors of carnitine palmitoyltransferase and treating cancer” (University Health Network, priority 2007, dated 2014).
